{"source": "paper PMC12655637", "about": "“Design, Synthesis, and Mechanistic Study of Novel Ciprofloxacin/Thiazole Chalcone Hybrids as Potential Anticancer Agents” (Pharmaceuticals, 2025)", "assay_in_all_cases": "NCI-60 screening, one-dose (10 µM) and five-dose, SRB", "key": {"[1]": {"test_system": "HCC-2998", "format": "cell-based, human"}, "[2]": {"test_system": "MOLT-4", "format": "cell-based, human"}, "[3]": {"test_system": "OVCAR-4", "format": "cell-based, human"}, "[4]": {"test_system": "SK-OV-3", "format": "cell-based, human"}, "[5]": {"test_system": "EKVX", "format": "cell-based, human", "conditions": "Homo sapiens, 10 μM, Non-Small-Cell Lung Cancer, read-out: Growth percentage"}, "[6]": {"test_system": "SF-539", "format": "cell-based, human"}, "[7]": {"test_system": "SNB-19", "format": "cell-based"}, "[8]": {"test_system": "KM12", "format": "cell-based, human", "conditions": "five-dose, KM12"}, "[9]": {"test_system": "T-47D", "format": "cell-based, human", "conditions": "five-dose"}, "[10]": {"test_system": "DU-145", "format": "cell-based, human"}, "[11]": {"test_system": "OVCAR-3", "format": "cell-based"}, "[12]": {"test_system": "UACC-62", "format": "cell-based"}, "[13]": {"test_system": "ACHN", "format": "cell-based, human"}, "[14]": {"test_system": "K-562", "format": "cell-based, human", "conditions": "five-dose, K-562"}, "[15]": {"test_system": "NCI-H522", "format": "cell-based, human"}, "[16]": {"test_system": "SF-268", "format": "cell-based, human", "conditions": "Homo sapiens"}, "[17]": {"conditions": "Homo sapiens, five-dose, HCC-2998"}, "[18]": {"conditions": "Homo sapiens, five-dose, MOLT-4"}, "[19]": {"conditions": "Homo sapiens, five-dose, OVCAR-4"}, "[20]": {"conditions": "Homo sapiens, five-dose, SF-539"}, "[21]": {"conditions": "Homo sapiens, five-dose, SNB-19"}, "[22]": {"conditions": "Homo sapiens, five-dose, DU-145"}, "[23]": {"conditions": "Homo sapiens, five-dose, OVCAR-3"}, "[24]": {"conditions": "Homo sapiens, five-dose, UACC-62"}, "[25]": {"conditions": "Homo sapiens, five-dose, NCI-H522"}}, "data": [{"smiles": "Cc1nc(SCC(=O)N2CCN(c3cc4c(cc3F)c(=O)c(C(=O)O)cn4C3CC3)CC2)sc1C(=O)/C=C/c1cccc(Cl)c1", "note": "[Compound 4b, (E)-7-(4-(2-((5-(3-(3-Chlorophenyl)acryloyl)-4-methylthiazol-2-yl)thio)acetyl)piperazin-1-yl)-1-cyclopropyl-6-fluoro-4-oxo-1,4-dihydroquinoline-3-carboxylic Acid]", "values": [{"measurement": "activity at 10 µM", "setting": "[1]; Homo sapiens, 10 μM, HCC-2998, Colon Cancer, read-out: Growth percentage", "result": 25.6, "unit": "%"}, {"measurement": "GI50", "setting": "[1]; [17]", "result": 1200, "unit": "nM"}, {"measurement": "IC50", "setting": "[1]; [17]", "result": 2200, "unit": "nM"}, {"measurement": "TGI", "setting": "[1]; five-dose, HCC-2998", "result": 2.9, "unit": "µM"}, {"measurement": "activity at 10 µM", "setting": "[2]; Homo sapiens, 10 μM, MOLT-4, Leukemia, read-out: Growth percentage", "result": 66.1, "unit": "%"}, {"measurement": "GI50", "setting": "[2]; [18]", "result": 12.9, "unit": "µM"}, {"measurement": "IC50", "setting": "[2]; [18]", "result": 21.9, "unit": "µM"}, {"measurement": "LC50 (concentration killing 50% of cells)", "setting": "[2]; [18]", "result": 56.2, "unit": "µM"}, {"measurement": "TGI", "setting": "[2]; five-dose, MOLT-4", "result": 26.9, "unit": "µM"}, {"measurement": "activity at 10 µM", "setting": "[3]; Homo sapiens, 10 μM, OVCAR-4, Ovarian Cancer, read-out: Growth percentage", "result": 106, "unit": "%"}, {"measurement": "GI50", "setting": "[3]; [19]", "result": "> 100", "unit": "µM"}, {"measurement": "IC50", "setting": "[3]; [19]", "result": "> 100", "unit": "µM"}, {"measurement": "CC50", "setting": "[3]; Homo sapiens, five-dose, OVCAR-4, read-out: LC50 (the source's name)", "result": "> 100", "unit": "µM"}, {"measurement": "TGI", "setting": "[3]; five-dose, OVCAR-4", "result": 100.0, "unit": "µM"}, {"measurement": "activity at 10 µM", "setting": "[4]; Homo sapiens, 10 μM, SK-OV-3, Ovarian Cancer, read-out: Growth percentage", "result": 46.3, "unit": "%"}, {"measurement": "IC50", "setting": "[4]; Homo sapiens, five-dose, SK-OV-3", "result": "> 100", "unit": "µM"}, {"measurement": "CC50", "setting": "[4]; Homo sapiens, five-dose, SK-OV-3, read-out: LC50 (the source's name)", "result": "> 100", "unit": "µM"}, {"measurement": "TGI", "setting": "[4]; five-dose, SK-OV-3", "result": 100.0, "unit": "µM"}, {"measurement": "activity at 10 µM", "setting": "[5]", "result": 83.9, "unit": "%"}, {"measurement": "activity at 10 µM", "setting": "[6]; Homo sapiens, SF-539, 10 μM, SF-539, CNS Cancer, read-out: Growth percentage", "result": 22.1, "unit": "%"}, {"measurement": "GI50", "setting": "[6]; [20]", "result": 3.7, "unit": "µM"}, {"measurement": "IC50", "setting": "[6]; [20]", "result": 15.1, "unit": "µM"}, {"measurement": "CC50", "setting": "[6]; Homo sapiens, five-dose, SF-539, read-out: LC50 (the source's name)", "result": "> 100", "unit": "µM"}, {"measurement": "TGI", "setting": "[6]; five-dose, SF-539", "result": 61.7, "unit": "µM"}, {"measurement": "activity at 10 µM", "setting": "[7]; Homo sapiens, 10 μM, SNB-19, CNS Cancer, read-out: Growth percentage", "result": 54.7, "unit": "%"}, {"measurement": "GI50", "setting": "[7]; [21]", "result": 22.4, "unit": "µM"}, {"measurement": "IC50", "setting": "[7]; [21]", "result": 49, "unit": "µM"}, {"measurement": "CC50", "setting": "[7]; Homo sapiens, five-dose, SNB-19, read-out: LC50 (the source's name)", "result": "> 100", "unit": "µM"}, {"measurement": "TGI", "setting": "[7]; five-dose, SNB-19", "result": 100.0, "unit": "µM"}, {"measurement": "GI50", "setting": "[8]; Homo sapiens", "result": 900, "unit": "nM"}, {"measurement": "IC50", "setting": "[8]; Homo sapiens", "result": 1300, "unit": "nM"}, {"measurement": "LC50", "setting": "[8]; Homo sapiens", "result": 9.3, "unit": "µM"}, {"measurement": "TGI", "setting": "[8]", "result": 3.0, "unit": "µM"}, {"measurement": "GI50", "setting": "[9]; Homo sapiens, T47D", "result": "> 100", "unit": "µM"}, {"measurement": "IC50", "setting": "[9]; Homo sapiens, T47D", "result": "> 100", "unit": "µM"}, {"measurement": "CC50", "setting": "[9]; Homo sapiens, T47D, read-out: LC50 (the source's name)", "result": "> 100", "unit": "µM"}, {"measurement": "TGI", "setting": "[9]", "result": 100.0, "unit": "µM"}, {"measurement": "activity at 10 µM", "setting": "[10]; Homo sapiens, 10 μM, DU-145, Prostate Cancer, read-out: Growth percentage", "result": 94.6, "unit": "%"}, {"measurement": "GI50", "setting": "[10]; [22]", "result": "> 100", "unit": "µM"}, {"measurement": "IC50", "setting": "[10]; [22]", "result": "> 100", "unit": "µM"}, {"measurement": "CC50", "setting": "[10]; Homo sapiens, five-dose, DU-145, read-out: LC50 (the source's name)", "result": "> 100", "unit": "µM"}, {"measurement": "TGI", "setting": "[10]; five-dose, DU-145", "result": 100.0, "unit": "µM"}, {"measurement": "activity at 10 µM", "setting": "[11]; Homo sapiens, 10 μM, OVCAR-3, Ovarian Cancer, read-out: Growth percentage", "result": 13.9, "unit": "%"}, {"measurement": "GI50", "setting": "[11]; [23]", "result": 22.9, "unit": "µM"}, {"measurement": "IC50", "setting": "[11]; [23]", "result": 41.7, "unit": "µM"}, {"measurement": "CC50", "setting": "[11]; Homo sapiens, five-dose, OVCAR-3, read-out: LC50 (the source's name)", "result": "> 100", "unit": "µM"}, {"measurement": "TGI", "setting": "[11]; five-dose, OVCAR-3", "result": 52.5, "unit": "µM"}, {"measurement": "activity at 10 µM", "setting": "[12]; Homo sapiens, 10 μM, UACC-62, Melanoma, read-out: Growth percentage", "result": 76.3, "unit": "%"}, {"measurement": "GI50", "setting": "[12]; [24]", "result": 20.9, "unit": "µM"}, {"measurement": "IC50", "setting": "[12]; [24]", "result": "> 100", "unit": "µM"}, {"measurement": "CC50", "setting": "[12]; Homo sapiens, five-dose, UACC-62, read-out: LC50 (the source's name)", "result": "> 100", "unit": "µM"}, {"measurement": "TGI", "setting": "[12]; five-dose, UACC-62", "result": 100.0, "unit": "µM"}, {"measurement": "activity at 10 µM", "setting": "[13]; Homo sapiens, 10 μM, Renal Cancer, read-out: Growth percentage", "result": 99.1, "unit": "%"}, {"measurement": "GI50", "setting": "[13]; Homo sapiens, five-dose", "result": "> 100", "unit": "µM"}, {"measurement": "IC50", "setting": "[13]; Homo sapiens, five-dose", "result": "> 100", "unit": "µM"}, {"measurement": "CC50", "setting": "[13]; Homo sapiens, five-dose, read-out: LC50 (the source's name)", "result": "> 100", "unit": "µM"}, {"measurement": "TGI", "setting": "[13]; five-dose", "result": 100.0, "unit": "µM"}, {"measurement": "GI50", "setting": "[14]; Homo sapiens, K562", "result": 4.2, "unit": "µM"}, {"measurement": "IC50", "setting": "[14]; Homo sapiens, K562", "result": 4.9, "unit": "µM"}, {"measurement": "CC50", "setting": "[14]; Homo sapiens, K562, read-out: LC50 (the source's name)", "result": "> 100", "unit": "µM"}, {"measurement": "TGI", "setting": "[14]", "result": 100.0, "unit": "µM"}, {"measurement": "activity at 10 µM", "setting": "[15]; Homo sapiens, 10 μM, NCI-H522, Non-Small-Cell Lung Cancer, read-out: Growth percentage", "result": 98.5, "unit": "%"}, {"measurement": "GI50", "setting": "[15]; [25]", "result": "> 100", "unit": "µM"}, {"measurement": "IC50", "setting": "[15]; [25]", "result": "> 100", "unit": "µM"}, {"measurement": "LC50 (concentration killing 50% of cells)", "setting": "[15]; [25]", "result": "> 100", "unit": "µM"}, {"measurement": "TGI", "setting": "[15]; five-dose, NCI-H522", "result": 100.0, "unit": "µM"}, {"measurement": "activity at 10 µM", "setting": "[16]; 10 μM, SF-268, CNS Cancer, read-out: Growth percentage", "result": 76.1, "unit": "%"}, {"measurement": "GI50", "setting": "[16]; five-dose, SF-268", "result": 22.4, "unit": "µM"}, {"measurement": "IC50", "setting": "[16]; five-dose, SF-268", "result": 53.7, "unit": "µM"}]}]}
